Structures can show the parent of a compound that is named as a salt.
Columns and labels:
CDK4/cyclin D3 = CDK4/cyclin D3 (Homo sapiens (Human), UniProt P11802); test: Kinase activity assay, Caliper Mobility Shift Assay, CDK4/cyclin D3; assay type: biochemical; conditions: class symbols
Method: The inhibitory effect of the compound on the kinase CDK4/cyclin D3 was tested by the Caliper Mobility Shift Assay method. The final test concentration of the compound was 10 concentrations, which started from […] and were obtained by three-fold dilution. 5 μL of 5-fold final concentration compound and 10 μL of CDK4/Cyclin D3 kinase solution with final concentration of 10 nM were added to the 384-well reaction plate respectively, and pre incubated at room temperature for 10 minutes (the negative control well contained 10 μL kinase buffer and 5 μL 5% DMSO; the positive control well contained 10 μL kinase solution and 5 μL 5% DMSO). The mixture of 10 μL ATP with a final concentration of 250 μM and the corresponding substrate peptide was added to initiate the reaction, and the mixture was reacted at room temperature for 150 minutes. 30 μL of stop test solution containing EDTA was added to stop the kinase reaction. Conversion rate was read by Caliper EZ Reader. Conversion inhibition rate %=(average conversion rate of positive control %−sample conversion rate %)/(average conversion rate of positive control %−average conversion rate of negative control %). Wherein: the negative control well represents conversion rate reading of wells without enzyme activity; the positive control well represents conversion rate reading of wells without compound inhibition. The log value of concentration was taken as the X-axis and the percentage inhibition rate was the Y-axis. […] Calculation formula: Y=Bottom+(Top−Bottom)/(1+10^((Log IC50−X)*HillSlope)).

CDK6/cyclin D3 = CDK6/cyclin D3 (Homo sapiens (Human), UniProt Q00534); test: Kinase activity assay, Caliper Mobility Shift Assay, CDK6/cyclin D3; assay type: biochemical; conditions: class symbols
CDK6/cyclin D3, sequence (Q00534 whole entry, species assumed): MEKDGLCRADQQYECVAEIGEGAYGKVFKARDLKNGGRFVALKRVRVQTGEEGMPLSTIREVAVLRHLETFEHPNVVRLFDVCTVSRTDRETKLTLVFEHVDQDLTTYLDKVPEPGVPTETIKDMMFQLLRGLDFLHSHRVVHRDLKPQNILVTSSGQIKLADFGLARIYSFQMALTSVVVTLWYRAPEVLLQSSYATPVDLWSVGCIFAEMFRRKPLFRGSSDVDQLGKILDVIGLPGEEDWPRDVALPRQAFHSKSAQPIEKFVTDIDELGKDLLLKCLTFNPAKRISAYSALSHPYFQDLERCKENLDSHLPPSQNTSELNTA
CDK6/cyclin D3, sequence (P30281 whole entry partner, species assumed): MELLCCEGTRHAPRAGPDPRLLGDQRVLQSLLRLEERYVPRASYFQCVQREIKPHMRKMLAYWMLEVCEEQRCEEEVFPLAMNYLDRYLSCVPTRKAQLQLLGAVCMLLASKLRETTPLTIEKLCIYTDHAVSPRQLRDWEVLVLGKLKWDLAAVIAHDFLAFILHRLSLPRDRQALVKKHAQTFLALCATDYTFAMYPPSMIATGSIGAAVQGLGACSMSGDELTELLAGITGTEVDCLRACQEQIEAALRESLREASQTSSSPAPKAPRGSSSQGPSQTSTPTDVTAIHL

CDK4/cyclin D3, sequence (P11802 whole entry, species assumed): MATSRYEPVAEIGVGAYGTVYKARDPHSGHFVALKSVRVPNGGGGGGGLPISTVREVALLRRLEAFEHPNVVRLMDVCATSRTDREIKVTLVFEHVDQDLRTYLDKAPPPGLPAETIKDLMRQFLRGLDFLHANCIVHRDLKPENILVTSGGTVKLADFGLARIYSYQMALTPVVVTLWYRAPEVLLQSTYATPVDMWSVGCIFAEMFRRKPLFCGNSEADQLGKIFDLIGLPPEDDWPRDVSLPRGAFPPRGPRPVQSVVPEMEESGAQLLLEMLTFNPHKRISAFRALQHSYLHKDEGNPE
CDK4/cyclin D3, sequence (P30281 whole entry partner, species assumed): as the sequence (P30281 whole entry partner, species assumed) above

Compound: CC(C)CN1CCN(c2ccc(Nc3ncc4ccc5nnn(C(C)C)c5c4n3)nc2)CC1 [Compound I-9, N-(5-(4-Isobutylpiperazin-1-yl)pyridin-2-yl)-1-isopropyl-1H-[1,2,3]triazolo [4,5-h]quinazolin-8-amine hydrochloride]
- IC50 (CDK4/cyclin D3): < 10 nM
- IC50 (CDK6/cyclin D3): < 10 nM

Compound: CC(C)n1nnc2ccc3cnc(Nc4ccc(C5CCNCC5)cn4)nc3c21 [Compound I-12, 1-Isopropyl-N-(5-(piperidin-4-yl)pyri-din-2-yl)-1H-[1,2,3]triazolo[4,5-h]quin-azolin-8-amine hydrochloride]
- IC50 (CDK4/cyclin D3): < 10 nM
- IC50 (CDK6/cyclin D3): < 10 nM

Compound: c1cc(Nc2ncc3ccc4nnn(C5CCCC5)c4c3n2)ncc1N1CCNCC1 [Compound I-22, 1-Cyclopentyl-N-(5-(piperazin-1-yl)pyridin-2-yl)-1H-[1,2,3]triazolo[4,5-h]quinazolin-8-amine hydrochloride]
- IC50 (CDK4/cyclin D3): < 10 nM
- IC50 (CDK6/cyclin D3): < 10 nM

Compound: Cc1nc(Nc2ncc3ccc4nnn(C(C)C)c4c3n2)ccc1N1CCNCC1 [Compound I-3, 1-Isopropyl-N-(6-methyl-5-(piperazin-1-yl)pyridin-2-yl)-1H-[1,2,3]triazolo[4,5-h]quinazolin-8-amine hydrochloride]
- IC50 (CDK4/cyclin D3): < 10 nM
- IC50 (CDK6/cyclin D3): < 10 nM

Compound: CCN1CCN(c2ccc(Nc3ncc4ccc5nnn(CC(C)C)c5c4n3)nc2)CC1 [Compound I-20, N-(5-(4-Ethylpiperazin-1-yl)pyridin-2-yl)-1-isobutyl-1H-[1,2,3]triazolo[4,5-h] quinazolin-8-amine]
- IC50 (CDK4/cyclin D3): < 10 nM
- IC50 (CDK6/cyclin D3): 10 to 50 nM

Compound: CN1CCN(c2ccc(Nc3ncc4ccc5nnn(C6CCCC6)c5c4n3)nc2)CC1 [Compound I-23, 1-Cyclopentyl-N-(5-(4-methylpiperazin-1-yl)pyridin-2-yl)-1H-[1,2,3]triazolo[4,5-h] quinazolin-8-amine]
- IC50 (CDK4/cyclin D3): < 10 nM
- IC50 (CDK6/cyclin D3): 10 to 50 nM

Compound: CC(C)n1nnc2ccc3cnc(Nc4ccc(N5CCN(C)CC5)cn4)nc3c21 [Compound I-4, 1-Isopropyl-N-(5-(4-methylpiperazin-1-yl)pyridin-2-yl)-1H-[1,2,3]triazolo[4,5-h]quinazolin-8-amine hydrochloride]
- IC50 (CDK4/cyclin D3): < 10 nM
- IC50 (CDK6/cyclin D3): < 10 nM

Compound: CC(C)Cn1nnc2ccc3cnc(Nc4ccc(N5CCNCC5)cn4)nc3c21 [Compound I-18, 1-Isobutyl-N-(5-(piperazin-1-yl)pyridin-2-yl)-1H-[1,2,3]triazolo[4,5-h]quina-zolin-8-amine]
- IC50 (CDK4/cyclin D3): < 10 nM
- IC50 (CDK6/cyclin D3): 10 to 50 nM

Compound: CC(C)n1nnc2ccc3cnc(Nc4ccc(N5CCNCC5)cn4)nc3c21 [Compound I-1, 1-Isopropyl-N-(5-(piperazin-1-yl)pyridin-2-yl)-1H-[1,2,3]triazolo[4,5-h]quinazolin-8-amine hydrochloride]
- IC50 (CDK4/cyclin D3): < 10 nM
- IC50 (CDK6/cyclin D3): < 10 nM

Compound: CC(C)n1nnc2ccc3cnc(Nc4ccc(N5CCS(=O)(=O)CC5)cn4)nc3c21 [Compound I-15, 4-(6-((1-Isopropyl-1H-[1,2,3]triazolo[4,5-h]quinazolin-8-yl)amino)pyridin-3-yl)thiomorpholine 1,1-dioxide hydrochloride]
- IC50 (CDK4/cyclin D3): < 10 nM
- IC50 (CDK6/cyclin D3): 10 to 50 nM

Compound: CC(C)Cn1nnc2ccc3cnc(Nc4ccc(N5CCN(C)CC5)cn4)nc3c21 [Compound I-19, 1-Isobutyl-N-(5-(4-methylpiperazin-1-yl)pyridin-2-yl)-1H-[1,2,3]triazolo[4,5-h]quinazolin-8-amine hydrochloride]
- IC50 (CDK4/cyclin D3): < 10 nM
- IC50 (CDK6/cyclin D3): 10 to 50 nM

Compound: CC(C)n1nnc2ccc3cnc(Nc4ccc(N5CCC(N(C)C)CC5)cn4)nc3c21 [Compound I-11, N-(5-(4-(Dimethylamino)piperidin-1-yl)pyridin-2-yl)-1-isopropyl-1H-[1,2,3] triazolo[4,5-h]quinazolin-8-amine hydrochloride]
- IC50 (CDK4/cyclin D3): < 10 nM
- IC50 (CDK6/cyclin D3): < 10 nM

Compound: CCN1CCN(c2ccc(Nc3ncc4ccc5nnn(C(C)C)c5c4n3)nc2)CC1 [Compound I-5, N-(5-(4-Ethylpiperazin-1-yl)pyridin-2-yl)-1-isopropyl-1H-[1,2,3]triazolo[4,5-h]quinazolin-8-amine hydrochloride]
- IC50 (CDK4/cyclin D3): < 10 nM
- IC50 (CDK6/cyclin D3): < 10 nM
